Reference: a melting point compilation (Tetko et al.; mined from patent text by program, amines drawn as free bases though some values may be those of a salt)

First: CCOC(=O)C1=CC(=O)C(C(=O)OCC)=C(S(=O)(=O)c2ccccc2)C1=O
Second: CCOP(=O)(Cc1c2ccccc2cc2ccccc12)OCC
The melting point of the first is higher: 112 to 114 °C for the first, 104 °C for the second.

First: COC(=O)C1=C(C)Nc2c(c(-c3ccccc3)nn2-c2ccccc2)C1c1cccc([N+](=O)[O-])c1 (stereo not given)
Second: O=C(O)c1ccccc1-n1c(-c2ccccc2)cc2c1-c1ccccc1CC2
The melting point of the first is higher: 186 to 189 °C for the first, 170 to 185 °C for the second.

First: CCOCc1nc2c(N)nc(C)c(C)c2n1CC1(O)CCCCC1
Second: Nc1nc2ccccc2c2c1ncn2CCNC(=O)c1ccccc1
The melting point of the first is lower: 194 to 195 °C for the first, 295 °C for the second.

First: Cc1cccc(S(=O)(=O)NC(=O)NCCCCCCN)c1
Second: CCCCCCCCCCCCC1=C(O)C(=O)c2c(C)cccc2C1=O
The melting point of the first is higher: 187 °C for the first, 92 to 93 °C for the second.

First: CC(C)n1nc(-c2ccc(O)cc2)c2cccc(C(F)(F)F)c21
Second: Cc1oc(-c2ccccc2)nc1COc1ccc(C=CC=O)cc1C(F)(F)F
The melting point of the first is higher: 156 to 157 °C for the first, 138 to 139 °C for the second.

First: CCN(CC)CC1CCCN(CCNC(=O)N2c3cc(Cl)ccc3C(=O)Nc3cccnc32)C1 (stereo not given)
Second: CCN(CC)CC1=Cc2ccc(Cl)cc2S1(=O)=O
The melting point of the first is higher: 125 °C for the first, 58 to 59 °C for the second.

First: CCc1cc2c(s1)SCC1CC(=O)N(c3ccc(Cl)cc3)N=C21 (stereo not given)
Second: Clc1ccc(-n2ncnc2-c2cnccn2)cc1
The melting point of the first is higher: 138 to 141 °C for the first, 129 to 131 °C for the second.

First: Clc1cccc2c(CN3CCN(c4ccc5c(c4)OCO5)CC3)n[nH]c12
Second: O=C(Nc1ccc(N2CCN(Cc3ccc[nH]3)CC2)cc1)c1ccccc1-c1ccc(C(F)(F)F)cc1
The melting point of the first is lower: 173 to 174 °C for the first, 191 to 193 °C for the second.

First: CN1C(C(=O)Nc2cncc(Cl)n2)=C(O)c2ccc3ccccc3c2S1(=O)=O
Second: O=C(O)c1ccc(Cl)nc1Nc1ccccc1
The melting point of the first is higher: 209 to 210 °C for the first, 181 to 185 °C for the second.

Compared with OC(COc1ccccc1)CN1CCN(c2nc3nccc(-c4ccncc4)n3n2)CC1 (stereo not given), N#Cc1c(N2CCN(C(=O)c3cccs3)CC2)c2cccnc2n(Cc2ccccc2)c1=O is higher in melting point: 143 to 145 °C for the first, 263 °C for the second.

First: COc1ccc2c(c1)sc1nc(N)nc(=Nc3ccc(O)cc3)n12
Second: COc1cc(OC)nc(Sc2ccnc3cc(Cl)ccc23)n1
The melting point of the first is higher: greater than 255 °C for the first, 93 to 94.5 °C for the second.

First: COc1cc(C=CC(=O)Nc2c(-c3ccccc3)c3cc(C)cc(C)c3oc2=O)cc(OC)c1OC(C)=O
Second: COc1cc(Br)ccc1OC(=O)c1ccccc1
The melting point of the first is higher: 245 to 248 °C for the first, 73 to 75 °C for the second.

C[C@H](Nc1cc(Cl)ccc1[N+](=O)[O-])C(=O)O and CC(=O)Nc1ccc(F)cc1C(=O)O cannot be ordered by melting point: 167 to 169 °C for the first, 168 to 170 °C for the second.

First: Cc1ccc(C(=O)C(=O)c2ccc(Br)cc2)cc1
Second: COC(=O)c1ccc(O)c(C(=O)CC(=O)c2ccccc2OC(C)C)c1
The melting point of the first is higher: 132 to 135 °C for the first, 105 to 107 °C for the second.

Compared with CC1(C)CCOC1=C(Sc1ccc(Cl)cc1)n1ccnc1, O=C1CCCc2nc(-c3ccccc3)ccc21 is lower in melting point: 134 °C for the first, 128 to 130 °C for the second.

First: Cc1cccc(C)c1CNc1cc(CO)cc2c1nc(C)n2C
Second: CCCC1COc2c(Cc3ccc(C(C)C)cc3)c(C)c(NC(=O)CC(C)(C)C)c(C)c21 (stereo not given)
The melting point of the first is higher: 245 to 246 °C for the first, 144 to 145 °C for the second.

First: COc1c(C(C)(C)C)cc(C(N)=O)cc1C(C)(C)C
Second: CC(=O)OCCSc1nc(C(C)(C)C)n[nH]1
The melting point of the first is higher: 239 to 243 °C for the first, 114 to 115 °C for the second.

First: O=C(O)Cc1ccc(C2CCCCC2)c2ccccc12
Second: COc1ccc(C(=O)[C@H]2CC=CC[C@H]2C(=O)O)cc1OC1CCCC1 (relative stereo)
The melting point of the first is higher: 161 to 163 °C for the first, 114 to 115 °C for the second.

Compared with C/C=C1\OC(=O)c2c(Oc3nc(OC)cc(OC)n3)cccc21, COc1cc(OC)nc(Oc2ccc3ccccc3c2C=NNc2ccccc2)n1 is lower in melting point: 163 to 165 °C for the first, 148 °C for the second.

First: O=C1c2cccc3cc4ccccc4c(c23)C(=O)N1CCNCCCNCCN1C(=O)c2cccc3cc4ccccc4c(c23)C1=O
Second: O=C1c2ccccc2C(=O)N1CC(=O)N1c2ccccc2N(Cc2ccccc2)C(=O)C(Cc2ccccc2)C1c1ccccc1 (stereo not given)
The melting point of the first is lower: 191 °C for the first, 255 to 256 °C for the second.

First: ON=C(c1ccccc1F)c1ccc(O)c(Cl)c1Cl
Second: C=C(CN1C(=O)c2ccccc2C1=O)c1ccccc1
The melting point of the first is higher: 168 to 175 °C for the first, 118 to 121 °C for the second.

Compared with Cc1cc(C#N)c2ccccn12, CCn1c(=N)c(-c2cccs2)cc2cnc(Nc3ccccc3)nc21 is higher in melting point: 98 to 100 °C for the first, 204 to 205 °C for the second.

Compared with COc1cccc([C@]23CCN(C)C(=O)[C@@H]2CCC(=O)C3)c1 (relative stereo), CC(C)N=C(NC#N)NCCN1CCC(C(=O)c2ccc(F)cc2)CC1 is higher in melting point: 156 to 158 °C for the first, 158 to 160 °C for the second.

Compared with COC(=O)C1C(=O)CCC1CC#N (stereo not given), CC(=NN(C)c1ccc(C(F)(F)F)cc1)C(=O)NCc1ccc(Cl)nc1 is higher in melting point: 49 to 50 °C for the first, 141 to 142 °C for the second.

Compared with CCCCC(CC)CNc1nc(N)nc(N)n1 (stereo not given), c1ccc2c(CCOc3cncc(N4CCNCC4)n3)c[nH]c2c1 is higher in melting point: 81 °C for the first, 133 to 135 °C for the second.
